IC50 data for eleven compounds are collected here from patent publication US20260176260A1, “DUAL RAF AND TUBULIN INHIBITORS AND METHODS OF USE THEREOF” (Deciphera Pharmaceuticals, LLC, priority 2023, published 2026).

One assay addresses T1, B-Raf kinase (Homo sapiens, UniProt P15056).
T1 construct: purchased Sigma
In words: Biochemical assay for B-Raf (coupled pyruvate kinase/lactate dehydrogenase).

For another assay, the target named is T2, C-Raf kinase (Homo sapiens, UniProt P04049, Y340D/Y341D).
T2 construct: C-Raf residues 306-end; Y340D, Y341D with N-; purchased Sigma
Briefly: Biochemical assay for C-Raf (coupled pyruvate kinase/lactate dehydrogenase).

The subject of another assay is HCT-116 cells. Briefly: HCT-116 cell proliferation assay (resazurin). Type of assay: cell-based. The method in brief: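 HCT-116 cells, 375 per well in McCoy's 5A with 10% FBS, exposed to serially diluted compound in triplicate for 67-72 h at 37 °C. Resazurin added for 4-5 h more; fluorescence (ex 540/em 600 nm) fitted to IC50.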
On the technique in general: The colour change of resazurin is a common sign of viable cells or microbes.

A further assay relates to HPAF-II cells. In words: HPAF-II cell proliferation assay (resazurin). Type of assay: cell-based. The method in brief:
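Serial compound dilutions in triplicate with 750 cells/well in complete MEM with 10% FBS, 115 to 120 h at 37° C, 5% CO2. Resazurin then added for 18 to 24 h; fluorescence at ex 540/em 600 nm used to derive IC50.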

For the next assay, the target named is T3, Porcine Brain Tubulin (Sus scrofa, UniProt P02550+P02554).
T3 construct: Porcine Brain Tubulin (T240); purchased Cytoskeleton, Inc T240; BK011P; host or cells: porcine brain
T3 sequence (P02550 whole entry): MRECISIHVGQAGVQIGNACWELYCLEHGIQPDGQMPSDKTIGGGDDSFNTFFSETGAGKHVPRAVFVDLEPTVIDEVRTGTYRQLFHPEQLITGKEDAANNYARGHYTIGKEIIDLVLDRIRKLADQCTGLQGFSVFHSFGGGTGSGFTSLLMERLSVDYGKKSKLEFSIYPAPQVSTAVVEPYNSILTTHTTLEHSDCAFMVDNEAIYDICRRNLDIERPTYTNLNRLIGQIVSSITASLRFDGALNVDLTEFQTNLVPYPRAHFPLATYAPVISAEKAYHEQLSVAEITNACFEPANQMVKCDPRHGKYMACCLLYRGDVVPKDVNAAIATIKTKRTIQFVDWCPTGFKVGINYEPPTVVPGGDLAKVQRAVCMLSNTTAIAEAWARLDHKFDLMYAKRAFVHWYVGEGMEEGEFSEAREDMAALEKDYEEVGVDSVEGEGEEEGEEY
T3 sequence (P02554 whole entry): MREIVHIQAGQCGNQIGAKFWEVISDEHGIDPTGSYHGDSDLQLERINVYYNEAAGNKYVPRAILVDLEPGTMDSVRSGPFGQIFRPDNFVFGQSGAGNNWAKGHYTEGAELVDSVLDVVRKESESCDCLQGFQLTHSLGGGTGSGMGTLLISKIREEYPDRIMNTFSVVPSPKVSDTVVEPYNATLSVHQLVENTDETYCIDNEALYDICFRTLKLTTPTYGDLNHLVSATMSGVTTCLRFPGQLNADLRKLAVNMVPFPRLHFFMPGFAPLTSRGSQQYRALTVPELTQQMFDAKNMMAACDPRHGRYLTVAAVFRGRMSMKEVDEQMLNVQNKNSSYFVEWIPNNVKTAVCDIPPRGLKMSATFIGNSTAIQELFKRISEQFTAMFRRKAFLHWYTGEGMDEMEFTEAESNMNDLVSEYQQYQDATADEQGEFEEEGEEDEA
In words: Biochemical tubulin polymerization assay.

Assay [1] has as its system tubulin polymerization in HCT-116 cells. Briefly: Cellular tubulin polymerization assay (pellet/supernatant a-tubulin, HCT-116 cells). Type of assay: cell-based. How it is done:
HCT-116 cells (catalog #CCL-247) are obtained from the American Type Culture Collect (ATCC, Manassas, VA). Briefly, cells are grown in McCoy's 5A supplemented with 10% characterized fetal bovine serum (Invitrogen, Carlsbad, CA) and 1% Penicillin/Streptomycin/L-Glutamine at 37° C., 5% CO2, and 95% humidity. Cells are expanded until reaching 70-95% confluency at which point they are sub-cultured or harvested for assay use. 450000 cells are added per well in 1500 μL complete growth medium in a tissue culture treated, 12-well plate. Plates are incubated for 18 to 24 h at 37° C., 5% CO2, and 95% humidity. At the end of the incubation, 2000 μL of base culture media is added to each well, followed by a serial dilution of compound. Plates are incubated for an additional 1 h at 37° C., 5% CO2, and 95% humidity. Lysates are generated by the addition of 100 μL Lysis and Microtubule Stabilization Buffer 1 (LMS01, Cytoskeleton Inc, Denver, CO) supplemented with GTP (BST06, Cytoskeleton Inc), ATP (BSA04, Cytoskeleton Inc), and Protease Inhibitor Cocktail Stock (PIC02, Cytoskeleton Inc). Cells are scraped off wells using a rubber cell scraper and collected in a clean 96-well plate. Lysates are centrifuged at 1000×g, 37° C. for 10 min and supernatant fraction is placed into an additional 96-well plate. The remaining pellet fraction is reconstituted in 100 μL LMS01 buffer and sonicated for 10 min. Pellet and Supernatant fractions are probed for a-tubulin via western blot analysis on the Jess System or equivalent (Bio-techne, Minneapolis, MN). Data is analyzed using Prism software (Graphpad, San Diego, CA) to calculate IC50 values.

In the next assay the test system is MiaPaca-2 cells. Briefly: MiaPaca-2 cell proliferation assay (resazurin). Type of assay: cell-based.
Where [2] appears, read: Homo sapiens, HCT-116, Table 4, read-out: HCT-116 IC50.
The mark [3] stands for this setting: Homo sapiens, HPAF-II, Table 4, read-out: HPAF-II IC50.
[4] abbreviates: Table 4, read-out: Tubulin Biochem IC50.
Setting [5] is: Homo sapiens, MIA PaCa-2, Table 5, read-out: MiaPaca-2.
The mark [6] stands for this setting: Homo sapiens, Table 5, read-out: HCT-116.
Where [7] appears, read: Homo sapiens, Table 5, read-out: HPAF-II.
Setting [8] is: Table 5, read-out: Tubulin Biochem.
Setting [9] is: Table 5, HCT-116 cells, read-out: Tubulin Cellular.

Read-outs that look alike come from different tables or passages of the source. Some results are limits rather than exact numbers.

T1 sequence (P15056 416-766): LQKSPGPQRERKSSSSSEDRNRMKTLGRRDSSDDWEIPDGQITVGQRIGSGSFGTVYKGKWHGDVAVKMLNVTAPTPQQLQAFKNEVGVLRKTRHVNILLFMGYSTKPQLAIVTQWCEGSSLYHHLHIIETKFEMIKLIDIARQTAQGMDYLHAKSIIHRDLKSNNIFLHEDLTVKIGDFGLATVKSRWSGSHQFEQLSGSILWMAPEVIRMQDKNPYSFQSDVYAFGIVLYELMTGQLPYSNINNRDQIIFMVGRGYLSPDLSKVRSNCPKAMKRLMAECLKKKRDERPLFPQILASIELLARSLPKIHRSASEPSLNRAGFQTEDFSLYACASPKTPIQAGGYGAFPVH

Take `CNC(=O)c1cc(-c2cc(-c3cc(NC(=O)c4ccnc(C(C)(C)F)c4)ccc3C)ccn2)ccn1` [reference compound]: the IC50 at B-Raf kinase (Table 4, read-out: BRAF IC50) is < 100 nM; on C-Raf kinase (Table 4, read-out: CRAF IC50), < 100 nM; with HCT-116 cells (setting [2]), 500 to 1000 nM; with HPAF-II cells (setting [3]), 1 to 10 µM; on Porcine Brain Tubulin (setting [4]), > 100 µM; in assay [1] (Table 4, HCT-116 cells, read-out: Tubulin Cellular IC50) it was 1000 to 10000 nM.
As for `CCCS(=O)(=O)Nc1ccc(F)c(C(=O)c2c[nH]c3ncc(-c4ccc(Cl)cc4)cc23)c1F` [Vemurafenib, reference compound], the IC50 with MiaPaca-2 cells (setting [5]) was 1 to 10 µM; with HCT-116 cells (setting [6]), 1000 to 10000 nM; in the assay with HPAF-II cells (setting [7]), 1 to 10 µM; at Porcine Brain Tubulin (setting [8]) it was > 100 µM.
Consider `C[C@@H](NC(=O)c1ncnc(N)c1Cl)c1ncc(C(=O)Nc2cc(C(F)(F)F)c(Cl)cn2)s1` [Tovorafenib, reference compound], for which the IC50 in the assay with MiaPaca-2 cells (setting [5]) was 1 to 10 µM; in the assay on HCT-116 cells (setting [6]), 1000 to 10000 nM; in the assay on HPAF-II cells (setting [7]), 1 to 10 µM; on Porcine Brain Tubulin (setting [8]) it was > 100 µM; in assay [1] (setting [9]) it was 1000 to 10000 nM.
As to `Cc1ccc(NC(=O)N2CC[C@@H](CC(F)(F)F)C2)cc1-c1cc(N[C@H](C)CO)nc(N2CCOCC2)c1` [Exarafenib, reference compound], the IC50 in the assay on MiaPaca-2 cells (setting [5]) fell in the range of 1 to 10 µM; with HCT-116 cells (setting [6]), 500 to 1000 nM; with HPAF-II cells (setting [7]), 1 to 10 µM; in assay [1] (setting [9]), 1000 to 10000 nM.
Turning to `Cc1cc(-c2cc(NC(=O)c3ccnc(C(C)(C)F)c3)ccc2C)cc(-c2ccnc(C(N)=O)c2)n1` [reference compound], the IC50 was < 100 nM on B-Raf kinase (Table 4, read-out: BRAF IC50); < 100 nM on C-Raf kinase (Table 4, read-out: CRAF IC50); 1000 to 10000 nM in the assay with HCT-116 cells (setting [2]); 1 to 10 µM in the assay on HPAF-II cells (setting [3]); > 100 µM at Porcine Brain Tubulin (setting [4]).
Regarding `Cc1ccc(NC(=O)c2ccnc(C(F)(F)F)c2)cc1-c1cc(OCCO)nc(N2CCOCC2)c1` [Naporafenib, reference compound], the IC50 was < 100 nM at B-Raf kinase (Table 5, read-out: BRAF); < 100 nM at C-Raf kinase (Table 5, read-out: CRAF); 1 to 10 µM in the assay with MiaPaca-2 cells (setting [5]); 1000 to 10000 nM in the assay on HCT-116 cells (setting [6]); 1 to 10 µM with HPAF-II cells (setting [7]); > 100 µM at Porcine Brain Tubulin (setting [8]).
With `CNC(=O)c1cc(-c2cc(-c3cc(NC(=O)c4cnnc(C(F)(F)F)c4)ccc3C)ccn2)ccn1` [reference compound], the IC50 is < 100 nM at B-Raf kinase (Table 4, read-out: BRAF IC50); < 100 nM on C-Raf kinase (Table 4, read-out: CRAF IC50); 1 to 10 µM in the assay with MiaPaca-2 cells (Homo sapiens, MIA PaCa-2, Table 4, read-out: MiaPaca-2 IC50); 1000 to 10000 nM in the assay on HCT-116 cells (setting [2]); 1 to 10 µM with HPAF-II cells (setting [3]); > 100 µM on Porcine Brain Tubulin (setting [4]).
Turning to `CNC(=O)c1cc(-c2cc(-c3cc(NC(=O)c4ccnc(C(C)(C)C#N)c4)c(F)cc3C)ccn2)ccn1` [reference compound], the IC50 at C-Raf kinase (Table 4, read-out: CRAF IC50) is < 100 nM; in the assay on HCT-116 cells (setting [2]), 500 to 1000 nM; in the assay on HPAF-II cells (setting [3]), 1 to 10 µM; on Porcine Brain Tubulin (setting [4]), > 100 µM.
For Belvarafenib [reference compound], the IC50 at B-Raf kinase (Table 5, read-out: BRAF) was < 100 nM; on C-Raf kinase (Table 5, read-out: CRAF), < 100 nM; with MiaPaca-2 cells (Table 5, read-out: MiaPaca-2) it was 1 to 10 µM; in the assay on HCT-116 cells (Table 5, read-out: HCT-116), 500 to 1000 nM; in the assay on HPAF-II cells (Table 5, read-out: HPAF-II), 1 to 10 µM; at Porcine Brain Tubulin (setting [8]) it was > 100 µM. Further, the IC50 in assay [1] (setting [9]) lay within 1000 to 10000 nM.
For the compound `CC(C)(C)c1[nH]cnc1/C=c1\[nH]c(=O)/c(=C/c2ccccc2)[nH]c1=O` [plinabulin, reference compound], the IC50 in assay [1] (ratio of pellet to supernatant vs DMSO control, HCT-116 cells, read-out: IC50 of inhibition of tubulin polymerization, cellular tubulin assay (FIG. 2)) stood at 5 nM.
With `CC(C)(C)c1nc(-c2cccc(NS(=O)(=O)c3c(F)cccc3F)c2F)c(-c2ccnc(N)n2)s1` [Dabrafenib, reference compound], the IC50 with MiaPaca-2 cells (setting [5]) was 1 to 10 µM; in the assay on HCT-116 cells (setting [6]), 1000 to 10000 nM; in the assay with HPAF-II cells (setting [7]), 1 to 10 µM; on Porcine Brain Tubulin (setting [8]) it was > 100 µM.
